According to ChEMBL document CHEMBL4340519, “The effects of Arctigenin-Valine ester on chemotherapy-induced myelosuppression in mice” (Bioorg Med Chem, 2019):
Calls of active or inactive are those of the source. The rule behind the calls is not given here.

Legend:
[1] = Toxicity in BALB/c mouse assessed as effect on appearance of shiny hair at 5 to 10 mg/kg, ip administered daily for 7 days measured during compound dosing; assay type: organism-based; conditions: in vivo, 168 h
Mus musculus [2] = test: Protection against CTX-induced myelosuppression in BALB/c mouse assessed as effect on PLT level at 5 mg/kg, ip administered daily for 7 days starting from 3 days post-CTX challenge measured 24 hrs post-last dose (reference value: 628.5 +/- 66.09 10^9/L); assay type: functional
Mus musculus [3] = test: (§1) Protection against CTX-induced myelosuppression in BALB/c mouse assessed as improvement in hematopoiesis by measuring increase in burst forming units of erythroid at 5 to 10 mg/kg, ip administered daily for 7 days starting from 3 days post-CTX challenge measured 24 hrs post-last dose by inverted microscopic method; assay type: functional, organism-based
Mus musculus [4] = test: Protection against CTX-induced toxicity in BALB/c mouse assessed as loss of diarrhea at 5 to 10 mg/kg, ip administered daily for 7 days starting from 3 days post-CTX challenge and measured during compound dosing; assay type: functional, organism-based
Mus musculus [5] = test: Protection against CTX-induced myelosuppression in BALB/c mouse assessed as upregulation of phosphorylated ERK expression at 5 to 10 mg/kg, ip administered daily for 7 days starting from 3 days post-CTX challenge measured 24 hrs post-last dose by Western blot analysis; assay type: functional, organism-based
[6] = Toxicity in BALB/c mouse assessed as change in appetite at 5 to 10 mg/kg, ip administered daily for 7 days measured during compound dosing; assay type: organism-based; conditions: in vivo, 168 h
Mus musculus [7] = test: (§2) Protection against CTX-induced myelosuppression in BALB/c mouse assessed as change in hematopoietic progenitor cell cycle distribution by increase in accumulation at G2/M-phase at 5 to 10 mg/kg, ip administered daily for 7 days starting from 3 days post-CTX challenge measured 24 hrs post-last dose by propidium iodide staining based flow cytometry; assay type: functional, organism-based
Mus musculus [8] = test: Protection against CTX-induced myelosuppression in BALB/c mouse assessed as effect on PLT level at 10 mg/kg, ip administered daily for 7 days starting from 3 days post-CTX challenge measured 24 hrs post-last dose (reference value: 628.5 +/- 66.09 10^9/L); assay type: functional
Mus musculus [9] = test: Protection against CTX-induced toxicity in BALB/c mouse assessed as restoration of normal body weight at 5 to 10 mg/kg, ip administered daily for 7 days starting from 3 days post-CTX challenge and measured during compound dosing; assay type: functional, organism-based
Mus musculus [10] = test: Protection against CTX-induced toxicity in BALB/c mouse assessed as loss of depilation at 5 to 10 mg/kg, ip administered daily for 7 days starting from 3 days post-CTX challenge and measured during compound dosing; assay type: functional, organism-based
Mus musculus [11] = test: as §2, with “decrease” for “increase”, “G0/G1-phase” for “G2/M-phase”; assay type: functional, organism-based
Mus musculus [12] = test: Protection against CTX-induced myelosuppression in BALB/c mouse assessed as improvement in hematopoiesis by decrease in granulocyte macrophage-colony stimulating factor level at 5 to 10 mg/kg, ip administered daily for 7 days starting from 3 days post-CTX challenge measured 24 hrs post-last dose by ELISA; assay type: functional, organism-based
Mus musculus [13] = test: Protection against CTX-induced myelosuppression in BALB/c mouse assessed as effect on HGB level at 10 mg/kg, ip administered daily for 7 days starting from 3 days post-CTX challenge measured 24 hrs post-last dose (reference value: 113.2 +/- 6.66 g/L); assay type: functional
Mus musculus [14] = test: Protection against CTX-induced myelosuppression in BALB/c mouse assessed as improvement in immunity by measuring spleen index at 5 mg/kg, ip administered daily for 7 days starting from 3 days post-CTX challenge measured 24 hrs post-last dose (reference value: 8.94 +/- […]); assay type: functional
Mus musculus [15] = test: Protection against CTX-induced toxicity in BALB/c mouse assessed as restoration of normal food intake at 5 to 10 mg/kg, ip administered daily for 7 days starting from 3 days post-CTX challenge and measured during compound dosing; assay type: functional, organism-based
Mus musculus [16] = test: Protection against CTX-induced myelosuppression in BALB/c mouse assessed as improvement in immunity by measuring spleen index at 10 mg/kg, ip administered daily for 7 days starting from 3 days post-CTX challenge measured 24 hrs post-last dose (reference value: 8.94 +/- […]); assay type: functional
Mus musculus [17] = test: Protection against CTX-induced myelosuppression in BALB/c mouse assessed as upregulation of MEK expression at 5 to 10 mg/kg, ip administered daily for 7 days starting from 3 days post-CTX challenge measured 24 hrs post-last dose by Western blot analysis; assay type: functional, organism-based
Mus musculus [18] = test: Protection against CTX-induced myelosuppression in BALB/c mouse assessed as effect on WBC level at 5 mg/kg, ip administered daily for 7 days starting from 3 days post-CTX challenge measured 24 hrs post-last dose (reference value: 10.34 +/- 1.4 10^9/L); assay type: functional
Mus musculus [19] = test: Protection against CTX-induced myelosuppression in BALB/c mouse assessed as effect on WBC level at 10 mg/kg, ip administered daily for 7 days starting from 3 days post-CTX challenge measured 24 hrs post-last dose (reference value: 10.34 +/- 1.4 10^9/L); assay type: functional
Mus musculus [20] = test: as §2, with “S-phase” for “G2/M-phase”; assay type: functional, organism-based
Mus musculus [21] = test: as §1, with “bone marrow nucleated cells” for “burst forming units of erythroid”; assay type: functional, organism-based
Mus musculus [22] = test: as §1, with “colonies” for “burst forming units”, “megakaryocytes” for “erythroid”; assay type: functional, organism-based
Mus musculus [23] = test: Protection against CTX-induced toxicity in BALB/c mouse assessed as loss of hematuria at 5 to 10 mg/kg, ip administered daily for 7 days starting from 3 days post-CTX challenge and measured during compound dosing; assay type: functional, organism-based
Mus musculus [24] = test: as §1, with “colonies” for “burst forming units”, “granulocyte macrophage” for “erythroid”; assay type: functional, organism-based
[25] = Toxicity in BALB/c mouse assessed as behavioral changes at 5 to 10 mg/kg, ip administered daily for 7 days measured during compound dosing; assay type: organism-based; conditions: in vivo, 168 h
Mus musculus [26] = test: Protection against CTX-induced toxicity in BALB/c mouse assessed as loss of cool skin at 5 to 10 mg/kg, ip administered daily for 7 days starting from 3 days post-CTX challenge and measured during compound dosing; assay type: functional, organism-based
Mus musculus [27] = test: Protection against CTX-induced myelosuppression in BALB/c mouse assessed as improvement in hematopoiesis by decrease in thrombopoietin level at 5 to 10 mg/kg, ip administered daily for 7 days starting from 3 days post-CTX challenge measured 24 hrs post-last dose by ELISA; assay type: functional, organism-based
Mus musculus [28] = test: as §1, with “colonies” for “burst forming units”; assay type: functional, organism-based
Mus musculus [29] = test: Protection against CTX-induced myelosuppression in BALB/c mouse assessed as improvement in hematopoiesis by decrease in erythropoietin level at 5 to 10 mg/kg, ip administered daily for 7 days starting from 3 days post-CTX challenge measured 24 hrs post-last dose by ELISA; assay type: functional, organism-based
Mus musculus [30] = test: Protection against CTX-induced myelosuppression in BALB/c mouse assessed as effect on HGB level at 5 mg/kg, ip administered daily for 7 days starting from 3 days post-CTX challenge measured 24 hrs post-last dose (reference value: 113.2 +/- 6.66 g/L); assay type: functional
[31] = Toxicity in BALB/c mouse assessed as change in body temperature at 5 to 10 mg/kg, ip administered daily for 7 days measured during compound dosing; assay type: organism-based; conditions: in vivo, 168 h
Mus musculus [32] = test: Protection against CTX-induced myelosuppression in BALB/c mouse assessed as effect on RBC level at 5 mg/kg, ip administered daily for 7 days starting from 3 days post-CTX challenge measured 24 hrs post-last dose (reference value: 8.63 +/- 0.68 10^12/L); assay type: functional
Mus musculus [33] = test: Protection against CTX-induced myelosuppression in BALB/c mouse assessed as effect on RBC level at 10 mg/kg, ip administered daily for 7 days starting from 3 days post-CTX challenge measured 24 hrs post-last dose (reference value: 8.63 +/- 0.68 10^12/L); assay type: functional

COc1ccc(C[C@H]2COC(=O)[C@@H]2Cc2ccc(OC(=O)[C@@H](N)C(C)C)c(OC)c2)cc1OC
Activity [1]: Non-Toxic | Activity (Mus musculus [2]): 796 ×10⁹ /L | Activity (Mus musculus [3]): Active | Activity (Mus musculus [4]): Active | Activity (Mus musculus [5]): Active | Activity [6]: Non-Toxic | Activity (Mus musculus [7]): Active | Activity (Mus musculus [8]): 848 ×10⁹ /L | Activity (Mus musculus [9]): Active | Activity (Mus musculus [10]): Active | Activity (Mus musculus [11]): Active | Activity (Mus musculus [12]): Active | Activity (Mus musculus [13]): 125.5 g/L | Activity index (Mus musculus [14]): 8.66 mg/g | Activity (Mus musculus [15]): Active | Activity index (Mus musculus [16]): 8.47 mg/g | Activity (Mus musculus [17]): Active | Activity (Mus musculus [18]): 9.29 ×10⁹ /L | Activity (Mus musculus [19]): 8.65 ×10⁹ /L | Activity (Mus musculus [20]): Active | Activity (Mus musculus [21]): Active | Activity (Mus musculus [22]): Active | Activity (Mus musculus [23]): Active | Activity (Mus musculus [24]): Active | Activity [25]: Non-Toxic | Activity (Mus musculus [26]): Active | Activity (Mus musculus [27]): Active | Activity (Mus musculus [28]): Active | Activity (Mus musculus [29]): Active | Activity (Mus musculus [30]): 120 g/L | Activity [31]: Non-Toxic | Activity (Mus musculus [32]): 8.8 ×10¹² /L | Activity (Mus musculus [33]): 9.24 ×10¹² /L
